# According to patent US8530460B2, “Azetidine derivatives” (Boehringer Ingelheim International GmbH, priority 2011, dated 2013):
# Target: human ACC2 (Homo sapiens (Human), UniProt O00763)
# Test: ACC2 assay (spectrophotometric 384 well assay, NADH-linked coupled lactate dehydrogenase/pyruvate kinase)
# Assay type: biochemical
# Conditions: hACC2 construct lacking 128 N-terminal amino acids; 25° C., 340 nm, 15 minutes
# Protocol: Spectrophotometric 384 Well Assay
# Malonyl CoA formation by acetyl CoA carboxylases is stoichometrically linked to the consumption of ATP. ACC2 activity is measured in a NADH-linked kinetic method measuring ADP generated during the ACC reaction using a coupled lactate dehydrogenase/pyruvate kinase reaction.
# For biological testing, a human ACC2 construct which lacks the 128 amino acids at the N-terminus for increased solubility (nt 385-6966 in Genbank entry AJ575592) is cloned. The protein is then expressed in insect cells using a baculoviral expression system. Protein purification is performed by anion exchange.
# All compounds are dissolved in dimethyl sulfoxide (DMSO) to a concentration of 10 mM.
# Assay reactions are then carried out in 384-well plates, with hACC2 in an appropriate dilution and at final assay concentrations (f.c.) of 100 mM Tris (pH 7.5), 10 mM trisodium citrate, 25 mM KHCO3, 10 mM MgCl2, 0.5 mg/ml BSA, 3.75 mM reduced L-glutathione, 15 U/ml lactate dehydrogenase, 0.5 mM phosphoenolpyruvate, 15 U/ml pyruvate kinase, compounds at different concentrations at final DMSO concentrations of 1%.
# The enzymatic reaction is then started by addition of a mixture of NADH, acetyl Coenzyme A (both 200 μM f.c.) and ATP (500 uM f.c.). The decrease of the optical density (slope S) is then determined at 25° C. at a wavelength of 340 nm over 15 minutes in a spectrophotometric reader.
# Each assay microtiter plate contains wells with vehicle instead of compound as controls for the non-inhibited enzyme (100% CTL; ‘HIGH’) and wells without acetyl-CoA as controls for non-specific NADH degradation (0% CTL; ‘LOW’).
# The slope S is used for calculation of % CTL=(S(compound)−S(‘LOW’))/(S(‘HIGH’)—S(‘LOW’))*100. Compounds will give values between 100% CTL (no inhibition) and 0% CTL (complete inhibition).
# For IC50 value determination, the sample slope in the presence of the test compound after subtraction of the low controls (S(compound)−S(‘LOW’)) are used.
# An IC50 value is derived from the compound slopes at different dosages after subtraction of the low controls (S(compound)−S(‘LOW’)) by non-linear regression curve fitting (equation y=(A+((B−A)/(1+((C/x)^D))))).
# human ACC2, sequence (O00763 129-2458): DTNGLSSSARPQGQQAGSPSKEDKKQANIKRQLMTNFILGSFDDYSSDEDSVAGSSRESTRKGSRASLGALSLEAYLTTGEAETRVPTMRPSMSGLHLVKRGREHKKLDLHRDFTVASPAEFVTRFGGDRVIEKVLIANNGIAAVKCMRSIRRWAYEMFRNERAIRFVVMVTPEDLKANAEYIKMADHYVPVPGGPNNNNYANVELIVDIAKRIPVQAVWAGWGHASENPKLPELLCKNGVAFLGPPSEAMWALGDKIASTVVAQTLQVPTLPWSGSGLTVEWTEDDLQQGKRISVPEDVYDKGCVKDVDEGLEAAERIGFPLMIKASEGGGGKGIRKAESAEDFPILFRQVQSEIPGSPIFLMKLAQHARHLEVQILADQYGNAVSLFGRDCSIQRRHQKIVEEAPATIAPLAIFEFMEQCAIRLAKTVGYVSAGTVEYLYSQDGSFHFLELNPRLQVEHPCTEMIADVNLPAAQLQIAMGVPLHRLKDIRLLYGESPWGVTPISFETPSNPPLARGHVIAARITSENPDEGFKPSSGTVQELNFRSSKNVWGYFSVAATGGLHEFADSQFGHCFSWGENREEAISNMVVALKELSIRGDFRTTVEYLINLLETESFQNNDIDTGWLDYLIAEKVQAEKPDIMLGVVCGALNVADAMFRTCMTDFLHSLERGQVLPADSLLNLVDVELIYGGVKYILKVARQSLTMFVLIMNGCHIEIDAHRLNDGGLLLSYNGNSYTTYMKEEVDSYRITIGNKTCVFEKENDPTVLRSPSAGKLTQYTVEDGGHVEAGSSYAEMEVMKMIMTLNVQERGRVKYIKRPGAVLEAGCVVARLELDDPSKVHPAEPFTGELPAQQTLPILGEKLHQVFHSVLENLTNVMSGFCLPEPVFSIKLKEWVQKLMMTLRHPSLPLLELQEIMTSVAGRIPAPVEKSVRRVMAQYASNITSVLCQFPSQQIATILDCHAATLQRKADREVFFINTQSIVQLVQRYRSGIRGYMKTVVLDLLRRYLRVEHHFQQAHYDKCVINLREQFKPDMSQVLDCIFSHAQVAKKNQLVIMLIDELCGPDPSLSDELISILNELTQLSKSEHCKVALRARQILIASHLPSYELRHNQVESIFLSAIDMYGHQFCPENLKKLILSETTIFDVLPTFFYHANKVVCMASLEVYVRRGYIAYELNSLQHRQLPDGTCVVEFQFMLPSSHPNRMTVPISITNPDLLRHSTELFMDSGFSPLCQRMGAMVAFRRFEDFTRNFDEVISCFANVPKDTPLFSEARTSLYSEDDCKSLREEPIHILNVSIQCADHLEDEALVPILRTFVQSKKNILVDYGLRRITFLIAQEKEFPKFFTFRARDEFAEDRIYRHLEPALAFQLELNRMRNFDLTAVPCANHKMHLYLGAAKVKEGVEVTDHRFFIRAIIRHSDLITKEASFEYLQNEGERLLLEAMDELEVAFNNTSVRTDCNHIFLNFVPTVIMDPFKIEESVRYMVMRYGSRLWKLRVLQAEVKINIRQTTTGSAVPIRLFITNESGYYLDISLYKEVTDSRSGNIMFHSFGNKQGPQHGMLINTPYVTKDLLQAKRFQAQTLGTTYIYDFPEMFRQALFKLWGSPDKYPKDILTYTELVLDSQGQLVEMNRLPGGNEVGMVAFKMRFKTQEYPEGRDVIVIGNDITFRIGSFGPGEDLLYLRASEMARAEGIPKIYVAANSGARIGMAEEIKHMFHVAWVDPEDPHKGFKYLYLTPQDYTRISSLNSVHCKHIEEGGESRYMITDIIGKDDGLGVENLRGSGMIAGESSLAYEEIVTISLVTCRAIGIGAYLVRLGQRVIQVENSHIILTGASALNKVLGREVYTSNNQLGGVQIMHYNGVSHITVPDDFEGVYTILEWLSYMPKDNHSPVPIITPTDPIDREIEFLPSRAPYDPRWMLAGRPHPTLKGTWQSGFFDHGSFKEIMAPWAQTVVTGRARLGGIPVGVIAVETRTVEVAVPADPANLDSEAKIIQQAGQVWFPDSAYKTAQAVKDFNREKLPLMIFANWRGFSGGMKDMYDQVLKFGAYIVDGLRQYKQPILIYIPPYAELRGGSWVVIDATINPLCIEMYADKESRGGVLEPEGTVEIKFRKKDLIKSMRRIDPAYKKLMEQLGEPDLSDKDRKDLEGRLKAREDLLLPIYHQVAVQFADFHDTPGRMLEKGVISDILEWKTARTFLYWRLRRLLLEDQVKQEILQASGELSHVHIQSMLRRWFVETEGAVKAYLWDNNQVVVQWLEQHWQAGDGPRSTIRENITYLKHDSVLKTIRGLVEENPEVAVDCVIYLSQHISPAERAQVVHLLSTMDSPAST
row,SMILES,IC50
1,CC(=O)N[C@@H](C)c1ccc(OC2CN(c3ccnc(OC(C)C)c3)C2)cc1 [Example 2.7],2060 nM
2,CC(=O)N[C@@H](C)c1ccc(OC2CN(c3ccnc(Oc4ccccc4)c3)C2)cc1 [Example 2.8],4100 nM
3,CC(=O)N[C@@H](C)c1ccc(OC2CN(c3ccnc(Oc4cncnc4)c3)C2)cc1 [Example 2.9],10600 nM
4,CCCOc1ccnc(N2CC(Oc3ccc([C@H](C)NC(C)=O)cc3)C2)c1 [Example 2.12],4500 nM
5,COc1cnc(N2CC(Oc3ccc([C@H](C)NC(C)=O)cc3)C2)nc1 [Example 3.2],1120 nM
6,COc1ccc(-c2cnc(N3CC(Oc4ccc(C(C)NC(C)=O)cc4)C3)nc2)cc1 (stereo not drawn) [Example 3.4],1470 nM
7,C[C@H](NC(=O)C1CC1)c1ccc(OC2CN(c3ncc(Br)cn3)C2)cc1 [Example 3.6],3880 nM
8,CC(=O)N[C@@H](C)c1ccc(OC2CN(c3nnc(-c4ccccc4)s3)C2)cc1 [Example 3.9],3820 nM
9,CC(=O)N[C@@H](C)c1ccc(OC2CN(c3ccc4ccccc4n3)C2)cc1 [Example 4.2],2040 nM
10,CC(=O)N[C@@H](C)c1ccc(OC2CN(c3cc(C(F)(F)F)cc(C)n3)C2)cc1 [Example 4.4],3990 nM
11,CC(=O)N[C@@H](C)c1ccc(OC2CN(c3ccc(C(C)C)cn3)C2)cc1 [Example 4.5],2450 nM
12,CC(=O)N[C@@H](C)c1ccc(OC2CN(c3nccc4ccccc34)C2)cc1 [Example 4.6],6230 nM
13,CC(=O)N[C@@H](C)c1ccc(OC2CN(c3cc(Cl)ccn3)C2)cc1 [Example 4.7],3470 nM
14,CCOc1cccc(N2CC(Oc3ccc([C@H](C)NC(C)=O)cc3)C2)n1 [Example 4.11],3620 nM
15,CC(=O)N[C@@H](C)c1ccc(OC2CN(c3cc(C(F)(F)F)ncn3)C2)cc1 [Example 4.14],6110 nM
16,CC(=O)N[C@@H](C)c1ccc(OC2CN(c3cc(Br)ccn3)C2)cc1 [Example 4.18],1800 nM
17,CC(=O)N[C@@H](C)c1ccc(OC2CN(c3ncc4nc(-c5ccccc5)oc4n3)C2)cc1 [Example 4.23],1180 nM
18,CC(=O)N[C@@H](C)c1ccc(OC2CN(c3ncc4nc(-c5ccsc5)oc4n3)C2)cc1 [Example 4.26],13300 nM
19,CC(=O)N[C@@H](C)c1ccc(OC2CN(c3ccnc(C(F)(F)F)c3)C2)cc1 [Example 4.29],1170 nM
20,CCOC(=O)c1cnc(N2CC(Oc3ccc([C@H](C)NC(C)=O)cc3)C2)nc1C(F)(F)F [Example 4.33],1730 nM
21,CCOC(=O)c1cc(C#N)c(N2CC(Oc3ccc([C@H](C)NC(C)=O)cc3)C2)nc1C(F)(F)F [Example 4.36],1140 nM
22,CC(=O)N[C@@H](C)c1ccc(OC2CN(c3nc4ccccc4nc3C)C2)cc1 [Example 4.38],3050 nM
23,CC(=O)N[C@@H](C)c1ccc(OC2CN(c3nc(-c4ccccc4)no3)C2)cc1 [Example 4.41],3480 nM
24,CC(=O)N[C@@H](C)c1ccc(OC2CN(c3ncc(C)cn3)C2)cc1 [Example 5.2],2180 nM
25,COc1cc(-c2cnc(N3CC(Oc4ccc([C@H](C)NC(C)=O)cc4)C3)nc2)ccn1 [Example 6.2],1740 nM
26,CC(=O)N[C@@H](C)c1ccc(OC2CN(c3cccc(OCC4CC4)c3)C2)cc1 [Example 7.1],1440 nM
27,CC(=O)N[C@@H](C)c1ccc(OC2CN(c3cccc(OCC4CC4(F)F)c3)C2)cc1 (stereo partly drawn) [Example 7.2],1250 nM
28,"CCCOc1ccc(N2CC(Oc3ccc([C@H](C)NC(=O)C4CC4)cc3)C2)c(OC)c1 [Example 8.1, (S)—N-(1-(4-(1-(2-Methoxy-4-propoxyphenyl)azetidin-3-yloxy)phenyl)ethyl)cyclopropanecarboxamide]",7700 nM
29,CCCOc1ccc(N2CC(Oc3ccc([C@H](C)NC(=O)CF)cc3)C2)c(OC)c1 [Example 8.2],2370 nM

# The remaining compounds from weak to strong by IC50, led by results:
row,IC50,SMILES
1,1110 nM,CC(=O)N[C@@H](C)c1ccc(OC2CN(c3ccc(Br)c(C#N)n3)C2)cc1 [Example 4.35]
2,1090 nM,CCCOc1ccc(N2CC(Oc3ccc([C@H](C)NC(=O)c4cn[nH]c4)cc3)C2)c(OC)c1 [Example 8.3]
3,1060 nM,CC(=O)N[C@@H](C)c1ccc(OC2CN(c3ccc(C4(C#N)CC4)cn3)C2)cc1 [Example 4.12]
4,1050 nM,CC(=O)N[C@@H](C)c1ccc(OC2CN(c3cncc(C(F)(F)F)c3)C2)cc1 [Example 4.40]
5,940 nM,CC(=O)N[C@@H](C)c1ccc(OC2CN(c3ncc(OC(C)C)cn3)C2)cc1 [Example 4.34]
6,780 nM,CC(=O)N[C@@H](C)c1ccc(OC2CN(c3cccc(OC4CCCC4)c3)C2)cc1 [Example 7.3]
7,770 nM,CC(=O)N[C@@H](C)c1ccc(OC2CN(c3cc(C(F)(F)F)ccn3)C2)cc1 [Example 4.20]
8,750 nM,CC(=O)N[C@@H](C)c1ccc(OC2CN(c3noc4ccccc34)C2)cc1 [Example 4.25]
9,720 nM,CC(=O)N[C@@H](C)c1ccc(OC2CN(c3ccnc(C(F)(F)F)n3)C2)cc1 [Example 4.9]
10,690 nM,CC(=O)N[C@@H](C)c1ccc(OC2CN(c3ccc4cc(Cl)ccc4n3)C2)cc1 [Example 4.15]
11,570 nM,CC(=O)N[C@@H](C)c1ccc(OC2CN(c3ncc(C(C)(C)C)cn3)C2)cc1 [Example 4.27]
12,530 nM,CC(=O)N[C@@H](C)c1ccc(OC2CN(c3ncc(OCC4CC4(F)F)cn3)C2)cc1 (stereo partly drawn) [Example 4.42]
13,530 nM,CC(=O)N[C@@H](C)c1ccc(OC2CN(c3nc(C(F)(F)F)ccc3F)C2)cc1 [Example 4.43]
14,480 nM,CC(=O)N[C@@H](C)c1ccc(OC2CN(c3nc4ccccc4o3)C2)cc1 [Example 4.3]
15,470 nM,C[C@H](NC(=O)N(C)C)c1ccc(OC2CN(c3ncc(Br)cn3)C2)cc1 [Example 3.7]
16,470 nM,CC(=O)N[C@@H](C)c1ccc(OC2CN(c3nccc(C(F)(F)F)n3)C2)cc1 [Example 4.16]
17,450 nM,COc1ccc2nc(N3CC(Oc4ccc([C@H](C)NC(C)=O)cc4)C3)ccc2c1 [Example 4.22]
18,410 nM,CC(=O)N[C@@H](C)c1ccc(OC2CN(c3cccc(C(F)(F)F)n3)C2)cc1 [Example 4.21]
19,390 nM,CC(=O)N[C@@H](C)c1ccc(OC2CN(c3ncc(Cl)cn3)C2)cc1 [Example 4.24]

row,IC50,SMILES
1,370 nM,CC(=O)N[C@@H](C)c1ccc(OC2CN(c3nccc(C(F)(F)F)c3F)C2)cc1 [Example 4.10]
2,360 nM,CC(=O)N[C@@H](C)c1ccc(OC2CN(c3cnc4ccccc4n3)C2)cc1 [Example 4.28]
3,320 nM,CCCc1cnc(N2CC(Oc3ccc(C(C)NC(C)=O)cc3)C2)nc1 (stereo not drawn) [Example 3.3]
4,290 nM,CC(=O)N[C@@H](C)c1ccc(OC2CN(c3ccc(Br)cn3)C2)cc1 [Example 4.17]
5,290 nM,CC(=O)N[C@@H](C)c1ccc(OC2CN(c3ccc(F)c(C(F)(F)F)n3)C2)cc1 [Example 4.37]
6,250 nM,CC(=O)N[C@@H](C)c1ccc(OC2CN(c3nc4ccccc4s3)C2)cc1 [Example 4.13]
7,240 nM,CC(=O)N[C@@H](C)c1ccc(OC2CN(c3ccc(-c4ccccc4)cn3)C2)cc1 [Example 4.8]
8,210 nM,"CC(=O)N[C@@H](C)c1ccc(OC2CN(c3ncc(Br)cn3)C2)cc1 [Example 3.1, (S)—N-(1-(4-(1-(5-bromopyrimidin-2-yl)azetidin-3-yloxy)phenyl)ethyl)acetamide]"
9,200 nM,C[C@H](NC(=O)C1CC1)c1ccc(OC2CN(c3ncc(C4CC4)cn3)C2)cc1 [Example 3.5]
10,200 nM,CC(=O)N[C@@H](C)c1ccc(OC2CN(c3ccc(C(F)(F)F)cn3)C2)cc1 [Example 4.19]
11,190 nM,CC(=O)N[C@@H](C)c1ccc(OC2CN(c3ncc(C(F)(F)F)cc3F)C2)cc1 [Example 4.31]
12,170 nM,CCCOc1ccc(N2CC(Oc3ccc([C@H](C)NC(C)=O)cc3)C2)c(C)c1 [Example 2.5]
13,170 nM,"CC(=O)N[C@@H](C)c1ccc(OC2CN(c3ncc(C4CC4)cn3)C2)cc1 [Example 5.1, (S)—N-(1-(4-(1-(5-Cyclopropylpyrimidin-2-yl)azetidin-3-yloxy)phenyl)ethyl)acetamide]"
14,150 nM,CC(=O)NC(C)c1ccc(OC2CN(c3ncc(C4CC4)cn3)C2)cc1 (stereo not drawn) [Example 6.3]
15,140 nM,CCOc1ccc(N2CC(Oc3ccc([C@H](C)NC(=O)C4CC4)cc3)C2)cc1 [Example 2.10]
16,100 nM,CC(=O)N[C@@H](C)c1ccc(OC2CN(c3ccc(Cl)c(C(F)(F)F)n3)C2)cc1 [Example 4.32]
17,90 nM,CCCOc1ccc(N2CC(Oc3ccc([C@H](C)NC(C)=O)cc3)C2)c(Cl)c1 [Example 2.6]
18,90 nM,CC(=O)N[C@@H](C)c1ccc(OC2CN(c3ncc(-c4ccc(F)cc4)cn3)C2)cc1 [Example 6.1]
